Assays:
[1] = test system: breast tumor cells MDA-MB-231; assay: wound scratching assay (cell migration); type: cell-based, human
Description: Referring to FIG. 14, the wound scratching assay was performed to analysis effect of the compound II in different doses on tumor cell metastasis. In the wound scratching assay for observing cell migration, the cells MDA-MB-231 (3×10^5) were planted in a 12-well plate, and the next day the cells were washed with PBS twice. The original culture medium then was replaced by 1% FBS cell culture medium. The next day a space was scratched at the bottom of the well. The cell culture medium was removed and the cells were washed with PBS twice. 1% FBS cell culture medium and the compound II of different concentrations were added and photographs were taken after 0, 12, 24 and 36 h so as to observe migration of cells. After the reaction, the cells were fixed for 30 min using 75% ice alcohol. After the alcohol was completely volatilized, the cells were stained with Giemsa Stain. The migration number of cells was counted in three random fields (200×) under the microscope (Lin et al., 2008). […] After the breast tumor cells were treated for 0, 12, 24 and 36 h, the quantitative result of effect of the compound II on metastasis of breast tumor cells MDA-MD-231 was observed, and the data results were represented by mean±SD values, where n=3.

[2] = test system: E-cadherin and Vimentin in cells of tumor inoculated nude mice; assay: immunochemistry staining of E-cadherin and Vimentin in tumors of nude mice; type: in vivo; conditions: 0.75 mg/Kg everyday
Description: ICC includes embedding the tumor cells in paraffin and slicing the embedded cells into slides having a thickness of […] by a slicer, deparaffinizing, rehydrating and renaturating, picking the slide out and putting the slide into the primary antibody E-cadherin; reacting for 1.5 h and washing the slide for three times with PBS, reacting with the secondary antibody for 30 min and washing the slide for three times with PBS, staining the slide with 3′,3′-diaminobenzendine (DAB) at a ratio of 1:30, and the slide was mounted with Entellanz. The expression amount of signaling-related proteins in the cells of tumor inoculated nude mice was detected by an immunochemistry staining method. In this test the expression of E-cadherin and Vimentin was particularly detected. Immunochemistry staining method and the quantitative method thereof were described as in the test example 2-2, and it is not illustrated any further. FIG. 29 illustrates photomicrographs of expression results of signaling-related proteins in the cells of tumor inoculated nude mice after the cells were stained through the immunochemistry staining method. FIGS. 30 and 31 were respective quantitative results of primary antibody reaction.

[3] = test system: EMT-related proteins in human normal breast cells MCF-10A stimulated by TNF-α/TGF-β; assay: western blotting of EMT-related proteins; type: cell-based
Description: FIG. 2A illustrates the expression results of EMT-related proteins in breast tumor cells MDA-MB-231 after the breast tumor cells MDA-MB-231 have been respectively cultured under compound II having concentrations of 0, 0.5, 1 and 2 μM for 24 h; and FIG. 2B illustrates the expression results of EMT-related proteins in breast tumor cells MCF-7 after the breast tumor cells MCF-7 have been respectively cultured under the compound II having concentrations of 0, 10, 15 and 20 μM for 24 h. FIG. 3A illustrates the western blotting results of EMT-related proteins in the breast tumor cells MDA-MB-468, where the breast tumor cells MDA-MB-468 are treated with the compound I having concentrations of 0, 0.5, 1 and 2 μM for 24 h, and FIG. 3B illustrates the western blotting results of EMT-related proteins in the breast tumor cells MDA-MB-435, where the breast tumor cells MDA-MB-435 are treated with the compound I having concentrations of 0, 2.5, 5 and 7.5 μM for 24 h. FIG. 4 illustrates the western blotting results of EMT-related proteins in the human normal breast cells MCF-10A stimulated by TNF-α/TGF-β, where the human normal breast cells MCF-10A are treated with the compound I having concentrations of 2 μM for 24 h. The human normal breast cells stimulated by TNF-α/TGF-β can cause TNF-α/TGF-β-induced EMT in the human normal breast cells MCF-10A. The steps of western blotting include: washing cells with PBS twice at 4° C.; adding a lysis buffer and rubbing the cells by a rubbr policeman so as to lyse cells; putting the lysed cell solution into a 1.5 ml microcentrifuge tube and shaking for 1 min; centrifuging at 12000 rpm for 10 min and taking the supernatant; measuring concentration of the protein through a Bio-Rad protein assay kit; and storing the remained extracted protein solution at −70° C.; taking 100 μg protein solution and adding a SDS/protein loading buffer having the same volume, where the SDS/protein loading buffer has a concentration two times larger than the protein solution; boiling the mixture of the protein solution and the SDS/protein loading buffer at 100° C. for 10 min; cooling and loading the protein samples in each hole of gel; adjusting the voltage to 100 V and running the protein samples on the gel until the tracking dye in the sample buffer reaches the bottom of the gel; and subsequently transferring the protein from the gel using electrophoresis. A PVDF membrane was soaked in methanol until the paper was totally wet. […] Then luminescence image equipment was used, where the PVDF was placed onto a black metal plate by a plastic pincer and the face including protein was upwards, a 1:1 mixed Chemiluminesent Substrate was added into the membrane and the exposure time depends on the fluorescence intensity of antibodies. […]

[4] = 2 μM with TNF-α/TGF-β 10 ng/ml, 24 h

| SMILES | breast tumor cells migrated ([1]; 0.5 μM, in 12-24 h) | migration capability of breast tumor cells ([1]; concentration above 1 μM) | expression amount of proteins used for facilitating tumor proliferation in tumor tissues [2] | expression amount of proteins used for inhibiting tumor proliferation in tumor tissues [2] | protein expression amount of E-cadherin and occludin [3, 4] | protein expression amount of vimentin and β-catenin [3, 4] | protein expression amount of E-cadherin and occludin ([3]; compound alone 2 μM) | protein expression amount of vimentin and β-catenin ([3]; compound alone 2 μM) |
| --- | --- | --- | --- | --- | --- | --- | --- | --- |
| COC1=C(OC)C(=O)C(C)=C(C)C1=O [compound II] | 60-70% | significantly inhibited | low | high | – | – | – | – |
| COC1=C(OC)C(=O)C(C)=CC1=O [compound I] | – | – | – | – | also increased | recovered the increase caused by TNF-α/TGF-β stimulating | increased | decreased |
